Read-outs that look alike come from different tables or passages of the source.
What was measured:
[1] = target: T1, human GLP-1 receptor (Homo sapiens, UniProt P43220); experiment: In vitro potency: CRE luciferase reporter gene assay in BHK cells expressing the human GLP-1 receptor; format: cell-based
T1 construct: expressed in transfected cells; host or cells: BHK cells (parent line BHKTS13), clone FCW467-12A; membrane preparation
Experimental: The purpose of this example is to test the activity, or potency, of the GLP-1 derivatives in vitro. The in vitro potency is the measure of human GLP-1 receptor activation in a whole cell assay.
In vitro potency was determined by measuring the response of the human GLP-1 receptor in a reporter gene assay. The assay was performed in a stably transfected BHK cell line that expresses the human GLP-1 receptor and contains the DNA for the cAMP response element (CRE) coupled to a promoter and the gene for firefly luciferase (CRE luciferase). When the human GLP-1 receptor is activated it results in the production of cAMP, which in turn results in the luciferase protein being expressed. When assay incubation is completed the luciferase substrate (luciferin) is added and the enzyme converts luciferin to oxyluciferin to produce bioluminescence. The luminescence is measured as the readout for the assay.
The cells were cultured at 5% CO2 in cell culture medium. They were aliquoted and stored in liquid nitrogen. Before each assay an aliquot was taken up and washed twice in PBS before being suspended at the desired concentration in the assay specific buffer.
The assay buffer consisted of 2% ovalbumin and 0.2% Pluronic F-68 in assay medium.
1) Cell stocks were thawed in a 37° C. water bath.
2) Cells were washed three times in PBS.
3) Cells were counted and adjusted to 5×10^3 cells/50 μl (1×10^5 cells/ml) in assay medium. A 50 μl aliquot of cells was transferred to each well in the assay plate.
4) Stocks of the test compounds and reference compounds were diluted to a concentration of 0.2 μM in assay buffer. […] 8) A 100 μl aliquot of steadylite plus reagent was added to each well of the assay plate. 9) Each assay plate was covered with aluminum foil to protect it from light and shaken for 30 min at room temperature. 10) Each assay plate was read in a BioTek Synergy 2 Multi-Mode Reader. Calculations and Results
The data from the BioTek Synergy 2 Multi-Mode Reader were transferred to GraphPad Prism software. The software performs a non-linear regression (log(agonist) vs response (three parameters)).
A minimum of two replicates were measured for each sample. The reported EC50 values are averages of all of the measured values for each compound.

[2] = target: T1, human GLP-1 receptor; experiment: GLP-1 receptor binding: competitive binding assay (125I-GLP-1, SPA) on isolated membranes at low and high HSA
Experimental: The purpose of this example is to test the receptor binding of the GLP-1 derivatives in vitro. The receptor binding is a measure of affinity of a derivative for the human GLP-1 receptor.
Each derivative is added in a series of concentrations to isolated membranes containing the human GLP-1 receptor and displacement of the labelled ligand is monitored. The receptor binding is reported as the concentration at which half of the labelled ligand is displaced from the receptor, the IC50 value.
Buffer 1 consisted of 20 mM Na-HEPES plus 10 mM EDTA and pH was adjusted to 7.4. Buffer 2 consisted of 20 mM Na-HEPES plus 0.1 mM EDTA and pH was adjusted to 7.4. Assay buffer consisted of 50 mM HEPES supplemented with 5 mM EGTA, 5 mM MgCl2, 0.005% Tween 20 and pH was adjusted to 7.4. An 8% albumin stock consisted of HSA dissolved at 8% (w/v) in assay buffer. An 0.02% albumin stock consisted of HSA dissolved at 0.02% (w/v) in assay buffer.
The cells express the human GLP-1 receptor.
The cells were grown at 5% CO2 in DMEM, 10% fetal calf serum, 1% Pen/Strep (Penicillin/Streptomycin) and 1.0 mg/ml of the selection marker G418. To make a membrane preparation the cells were grown to approximately 80% confluence. The cells were washed twice in phosphate-buffered saline and harvested. The cells were pelleted using a brief centrifugation and the cell pellet was kept on ice. […] The homogenate was centrifuged for 15 minutes. The pellet was re-suspended (homogenised) in 10 ml buffer 2 and centrifuged. This step was repeated once more. The resulting pellet was re-suspended in buffer 2 and the protein concentration was determined. The membranes were aliquoted and stored at minus 80° C.
1. […] Assay continued with step 3.
2. For the receptor binding assay in the presence of high HSA (2%) 50 μl of the 8% albumin stock was added to each well of an assay plate. Assay continued with step 3.
4. Cell membrane aliquots were thawed and diluted to their working concentration. Fifty μl were added to each well in the assay plate.
5. WGA SPA beads were suspended in assay buffer at 20 mg/ml. The suspension was diluted to 10 mg/ml in assay buffer just prior to addition to the assay plate. Fifty μl were added to each well in the assay plate.
6. […] A 25 μl aliquot was reserved for measuring total counts/well.
7. The assay plate was incubated for 2 h at 30° C.
8. The assay plate was centrifuged for 10 min.
9. The assay plate was read in a Packard TopCount NXT instrument.
The data from the TopCount instrument were transferred to GraphPad Prism software. Individual replicates were analysed using non-linear regression. IC50 values were calculated by the software and reported in nM. The reported values are averages of all of the measured values for each compound.

[3] = whole cell reporter gene assay, BHK cells, human GLP-1 receptor, average of at least two replicates, read-out: EC50
[4] = high HSA (2.0% final assay concentration), read-out: High HSA IC50
[5] = low HSA (max. 0.001% final assay concentration), read-out: Low HSA IC50

T1 sequence (P43220 24-463): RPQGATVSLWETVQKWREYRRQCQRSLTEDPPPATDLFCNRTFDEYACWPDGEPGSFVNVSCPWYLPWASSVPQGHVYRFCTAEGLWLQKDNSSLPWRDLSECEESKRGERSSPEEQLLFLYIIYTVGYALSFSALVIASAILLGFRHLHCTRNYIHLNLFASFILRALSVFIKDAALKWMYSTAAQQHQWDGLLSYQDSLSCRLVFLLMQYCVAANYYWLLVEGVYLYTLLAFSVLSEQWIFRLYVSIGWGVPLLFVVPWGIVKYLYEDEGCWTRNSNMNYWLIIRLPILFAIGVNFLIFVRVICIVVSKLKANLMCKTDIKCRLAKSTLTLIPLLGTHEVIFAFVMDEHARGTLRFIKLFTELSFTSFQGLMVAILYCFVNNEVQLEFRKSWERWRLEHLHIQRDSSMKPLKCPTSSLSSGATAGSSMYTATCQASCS

EC50 [1, 3] [nM] | IC50 [2, 4] [nM] | IC50 [2, 5] [nM] | SMILES | EC50 [1] [nM] | IC50 ([2]; High HSA IC50, high HSA (2.0% final assay concentration)) [nM] | IC50 ([2]; Low HSA IC50, low HSA (max. 0.001% final assay concentration)) [nM]
 |  |  | CC[C@H](C)[C@H](NC(=O)[C@H](Cc1ccccc1)NC(=O)[C@H](CCC(=O)O)NC(=O)[C@H](CCCNC(=N)N)NC(=O)[C@H](C)NC(=O)[C@H](C)NC(=O)[C@H](CCC(N)=O)NC(=O)[C@H](CCC(=O)O)NC(=O)[C@H](CCC(=O)O)NC(=O)[C@H](CC(C)C)NC(=O)[C@H](Cc1ccc(O)cc1)NC(=O)[C@H](CO)NC(=O)[C@H](CO)NC(=O)[C@@H](NC(=O)[C@H](CC(=O)O)NC(=O)[C@H](CO)NC(=O)[C@@H](NC(=O)[C@H](Cc1ccccc1)NC(=O)[C@@H](NC(=O)CNC(=O)[C@H](CCC(=O)O)NC(=O)C(C)(C)NC(=O)[C@@H](N)Cc1c[nH]cn1)[C@@H](C)O)[C@@H](C)O)C(C)C)C(=O)N[C@@H](C)C(=O)N[C@@H](Cc1c[nH]c2ccccc12)C(=O)N[C@@H](CC(C)C)C(=O)N[C@H](C(=O)N[C@@H](CCCNC(=N)N)C(=O)NCC(=O)N[C@@H](CCCNC(=N)N)C(=O)N[C@@H](CCCCNC(=O)CN(CCCNC(=O)COCCOCCNC(=O)COCCOCCNC(=O)COCCOCCNC(=O)COCCOCCNC(=O)COCCOCCNC(=O)COCCOCCNC(=O)[C@@H](N)CCCCNC(=O)[C@@H](N)CCCCNC(=O)CCCNC(=O)CCCCCCCCCCCCCCCS(=O)(=O)O)CCCNC(=O)COCCOCCNC(=O)COCCOCCNC(=O)COCCOCCNC(=O)COCCOCCNC(=O)COCCOCCNC(=O)COCCOCCNC(=O)[C@@H](N)CCCCNC(=O)[C@@H](N)CCCCNC(=O)CCCNC(=O)CCCCCCCCCCCCCCCS(=O)(=O)O)C(=O)O)C(C)C [Example 15] | 0.0056 | 3.4 | 0.05
0.0017 | 3.3 | 0.1 | CC[C@H](C)[C@H](NC(=O)[C@H](Cc1ccccc1)NC(=O)[C@H](CCC(=O)O)NC(=O)[C@H](CCCNC(=N)N)NC(=O)[C@H](C)NC(=O)[C@H](C)NC(=O)[C@H](CCC(N)=O)NC(=O)[C@H](CCC(=O)O)NC(=O)[C@H](CCC(=O)O)NC(=O)[C@H](CC(C)C)NC(=O)[C@H](Cc1ccc(O)cc1)NC(=O)[C@H](CO)NC(=O)[C@H](CO)NC(=O)[C@@H](NC(=O)[C@H](CC(=O)O)NC(=O)[C@H](CO)NC(=O)[C@@H](NC(=O)[C@H](Cc1ccccc1)NC(=O)[C@@H](NC(=O)CNC(=O)[C@H](CCC(=O)O)NC(=O)C(C)(C)NC(=O)[C@@H](N)Cc1c[nH]cn1)[C@@H](C)O)[C@@H](C)O)C(C)C)C(=O)N[C@@H](C)C(=O)N[C@@H](Cc1c[nH]c2ccccc12)C(=O)N[C@@H](CC(C)C)C(=O)N[C@H](C(=O)N[C@@H](CCCNC(=N)N)C(=O)NCC(=O)N[C@@H](CCCNC(=N)N)C(=O)N[C@@H](CCCCNC(=O)CN(CCCNC(=O)COCCOCCNC(=O)COCCOCCNC(=O)COCCOCCNC(=O)COCCOCCNC(=O)CC[C@H](NC(=O)CCCNC(=O)CCCCCCCCCCCCCCCS(=O)(=O)O)C(=O)O)CCCNC(=O)COCCOCCNC(=O)COCCOCCNC(=O)COCCOCCNC(=O)COCCOCCNC(=O)CC[C@H](NC(=O)CCCNC(=O)CCCCCCCCCCCCCCCS(=O)(=O)O)C(=O)O)C(=O)O)C(C)C [Example 16, N{Epsilon-37}-[2-[bis[3-[[2-[2-[2-[[2-[2-[2-[[2-[2-[2-[[2-[2-[2-[[(4S)-4-carboxy-4-[4-(16-sulfohexadecanoylamino)butanoylamino]butanoyl]amino]ethoxy]ethoxy]acetyl]amino]ethoxy]ethoxy]acetyl]amino]ethoxy]ethoxy]acetyl]amino]ethoxy]ethoxy]acetyl]amino]propyl]amino]acetyl]-[Aib8,Glu22,Arg26,Arg34,Lys37]-GLP-1-(7-37)-peptide] |  |  | 
0.0012 | 3.2 | 0.16 | CC[C@H](C)[C@H](NC(=O)[C@H](Cc1ccccc1)NC(=O)[C@H](CCC(=O)O)NC(=O)[C@H](CCCNC(=N)N)NC(=O)[C@H](C)NC(=O)[C@H](C)NC(=O)[C@H](CCC(N)=O)NC(=O)[C@H](CCC(=O)O)NC(=O)[C@H](CCC(=O)O)NC(=O)[C@H](CC(C)C)NC(=O)[C@H](Cc1ccc(O)cc1)NC(=O)[C@H](CO)NC(=O)[C@H](CO)NC(=O)[C@@H](NC(=O)[C@H](CC(=O)O)NC(=O)[C@H](CO)NC(=O)[C@@H](NC(=O)[C@H](Cc1ccccc1)NC(=O)[C@@H](NC(=O)CNC(=O)[C@H](CCC(=O)O)NC(=O)C(C)(C)NC(=O)[C@@H](N)Cc1c[nH]cn1)[C@@H](C)O)[C@@H](C)O)C(C)C)C(=O)N[C@@H](C)C(=O)N[C@@H](Cc1c[nH]c2ccccc12)C(=O)N[C@@H](CC(C)C)C(=O)N[C@H](C(=O)N[C@@H](CCCNC(=N)N)C(=O)NCC(=O)N[C@@H](CCCNC(=N)N)C(=O)N[C@@H](CCCCNC(=O)CN(CCCNC(=O)COCCOCCNC(=O)COCCOCCNC(=O)COCCOCCNC(=O)COCCOCCNC(=O)COCCOCCNC(=O)CC[C@H](NC(=O)CCCNC(=O)CCCCCCCCCCCCCCCS(=O)(=O)O)C(=O)O)CCCNC(=O)COCCOCCNC(=O)COCCOCCNC(=O)COCCOCCNC(=O)COCCOCCNC(=O)COCCOCCNC(=O)CC[C@H](NC(=O)CCCNC(=O)CCCCCCCCCCCCCCCS(=O)(=O)O)C(=O)O)C(=O)O)C(C)C [Example 17, N{Epsilon-37}-[2-[bis[3-[[2-[2-[2-[[2-[2-[2-[[2-[2-[2-[[2-[2-[2-[[2-[2-[2-[[(4S)-4-carboxy-4-[4-(16-sulfohexadecanoylamino)butanoylamino]butanoyl]amino]ethoxy]ethoxy]acetyl]amino]ethoxy]ethoxy]acetyl]amino]ethoxy]ethoxy]acetyl]amino]ethoxy]ethoxy]acetyl]amino]ethoxy]ethoxy]acetyl]amino]propyl]amino]acetyl]-[Aib8,Glu22,Arg26,Arg34,Lys37]-GLP-1-(7-37)-peptide] |  |  | 
